Measured values: US20260199485A1, “RNA DEGRADERS AND USES THEREOF” (Arrakis Therapeutics, Inc., priority 2022, published 2026)

What follows are molecules tested against T1, CNOT7 (Homo sapiens, UniProt Q9UIV1) (assay: Binding of compounds to CNOT7 by surface plasmon resonance (SPR)). Conditions: Table 4; dissociation constant for CNOT7.
T1 construct: biotin (biotinylated); purchased Ichor Life Sciences
Procedure: Surface plasmon resonance (SPR) was used to evaluate the binding of compounds to CNOT7. Experiments were performed on a Biacore 8K (Cytiva) with a running buffer consisting of 20 mM HEPES pH7.5, 100 mM KCl, 3 mM MgCl2, 1 mM TCEP, 0.05% tween-20, 2% DMSO. Briefly, biotinylated CNOT7 (Ichor Life Sciences) at a concentration of 70 μg/ml was immobilized to a streptavidin coated chip (Cytiva sensor chip SA) for 1200 sec at a flow rate of 5 μl/min (typical immobilization level 7,500 RU). For compound binding experiments, various concentrations of analyte were flowed over the chip with 120 sec association phase, 120 sec dissociation phase, at a flow rate of 30 ul/min and collection rate of 10 Hz. Reference channel subtraction and solvent correction were applied to all sensograms prior to data analysis. Sensograms were fit to 1:1 steady state affinity model. FIGS. 3 and 4 show the binding of exemplary compounds and the AMP control (a known CNOT7 active site binder) at various concentrations to CNOT7.

T1 sequence (Q9UIV1 whole entry): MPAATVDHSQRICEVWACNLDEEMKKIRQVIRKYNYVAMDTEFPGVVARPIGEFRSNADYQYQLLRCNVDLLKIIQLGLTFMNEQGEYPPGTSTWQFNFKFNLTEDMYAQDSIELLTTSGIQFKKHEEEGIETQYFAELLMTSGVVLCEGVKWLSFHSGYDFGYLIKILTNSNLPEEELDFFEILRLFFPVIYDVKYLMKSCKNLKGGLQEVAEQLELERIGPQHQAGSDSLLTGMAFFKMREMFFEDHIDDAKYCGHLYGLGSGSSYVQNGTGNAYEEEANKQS

Kd | Structure (SMILES)
> 25 µM | O=C(CSc1cc[nH]c(=O)n1)NCc1ccc2c(c1)OCO2 [Compound I-2]
> 25 µM | COc1cccc(CNC(=O)CSc2nc(=O)[nH]cc2C)c1 [Compound I-5]
> 25 µM | Cc1c[nH]c(=O)nc1SCC(=O)N(C)Cc1ccc2c(c1)OCO2 [Compound I-6]

Same assay, conditions: Table 5; dissociation constant for CNOT7 by SPR

Kd | Structure (SMILES)
> 25 µM | COc1ccc(C(C)NC(=O)C2CC2c2nc(=O)[nH]cc2C)cc1 (mixture of isomers) [Compound I-239]
> 25 µM | COc1ccc(C(C)NC(=O)C2CC2c2nc(=O)[nH]cc2C)cc1 (mixture of isomers) [Compound I-240]
> 25 µM | COc1ccc([C@H](C)NC(=O)CSc2nc(=O)[nH]cc2C)cc1 [Compound I-26]
1 to 25 µM | COc1ccc([C@@H](C)NC(=O)CSc2nc(=O)[nH]cc2C)cc1 [Compound I-27]
1 to 25 µM | COc1ccc(C(C)NC(=O)CSc2nc(=O)[nH]cc2C)cc1 (centres unmarked) [Compound I-28]
> 25 µM | COc1ccc(CNC(=O)COc2nc(=O)[nH]cc2C)cc1 [Compound I-31]
> 25 µM | COc1ccc(CNC(=O)CNc2nc(=O)[nH]cc2C)cc1 [Compound I-32]
1 to 25 µM | COc1ccc(CNC(=O)CCc2nc(=O)[nH]cc2C)cc1 [Compound I-34]
1 to 25 µM | COc1ccc(CNC(=O)CSc2nc(=O)[nH]cc2C)nc1 [Compound I-42]
> 25 µM | COc1ccc(CNC(=O)CSc2nc(=O)[nH]cc2C)cn1 [Compound I-43]
1 to 25 µM | COc1cnc(CNC(=O)CSc2nc(=O)[nH]cc2C)nc1 [Compound I-44]
1 to 25 µM | COc1ccc(C(CO)NC(=O)CSc2nc(=O)[nH]cc2C)cc1 (centres unmarked) [Compound I-46]
1 to 25 µM | COc1ccc([C@@H](CO)NC(=O)CSc2nc(=O)[nH]cc2C)cc1 [Compound I-48]
1 to 25 µM | Cc1c[nH]c(=O)nc1SCC(=O)NCc1ccc2c(c1)OCCO2 [Compound I-50]
> 25 µM | Cc1c[nH]c(=O)nc1SCC(=O)NCc1ccc2oc(=O)[nH]c2c1 [Compound I-51]
> 25 µM | Cc1c[nH]c(=O)cc1SCC(=O)NCc1ccc2c(c1)NC(=O)CO2 [Compound I-52]
> 25 µM | Cc1c[nH]c(=O)nc1SCC(=O)NCc1ccc2c(c1)NCCO2 [Compound I-54]
> 25 µM | Cc1c[nH]c(=O)nc1SCC(=O)NCc1ccc2c(c1)N(C)CCO2 [Compound I-55]
1 to 25 µM | Cc1c[nH]c(=O)nc1SCC(=O)NCc1ccc2c(c1)CC(=O)N2 [Compound I-56]
1 to 25 µM | Cc1c[nH]c(=O)nc1SCC(=O)NCc1ccc2c(c1)NC(=O)C2 [Compound I-57]
1 to 25 µM | COCCOCCC(Sc1nc(=O)[nH]cc1C)C(=O)NCc1ccc(OC)cc1 (centres unmarked) [Compound I-165, 4-(2-methoxyethoxy)-N-[(4-methoxyphenyl)methyl]-2-[(5-methyl-2-oxo-1H-pyrimidin-4-yl)sulfanyl]butanamide]
1 to 25 µM | COCCOCC[C@@H](Sc1nc(=O)[nH]cc1C)C(=O)NCc1ccc(OC)cc1 [Compound I-166, (2R)-4-(2-methoxyethoxy)-N-[(4-methoxyphenyl)methyl]-2-[(5-methyl-2-oxo-1H-pyrimidin-4-yl)sulfanyl]butanamide]
1 to 25 µM | COCCOCC[C@H](Sc1nc(=O)[nH]cc1C)C(=O)NCc1ccc(OC)cc1 [Compound I-167, (2S)-4-(2-methoxyethoxy)-N-[(4-methoxyphenyl)methyl]-2-[(5-methyl-2-oxo-1H-pyrimidin-4-yl)sulfanyl]butanamide]
1 to 25 µM | COc1ccc(CNC(=O)C(C)Sc2nc(=O)[nH]cc2C)cc1 (centres unmarked) [Compound I-168]
1 to 25 µM | COCC(Sc1nc(=O)[nH]cc1C)C(=O)NCc1ccc(OC)cc1 (centres unmarked) [Compound I-169]
1 to 25 µM | CCC(Sc1nc(=O)[nH]cc1C)C(=O)NCc1ccc(OC)cc1 (centres unmarked) [Compound I-170]
0.1 to 1 µM | COCC(Sc1nc(=O)[nH]cc1C)C(=O)NCc1ccc2c(c1)CC(=O)N2 (centres unmarked) [Compound I-191]

Kd | Structure (SMILES)
1 to 25 µM | COCC(Sc1nc(=O)[nH]cc1C)C(=O)NC(C)c1ccc2c(c1)CC(=O)N2 (centres unmarked) [Compound I-192]
1 to 25 µM | COC[C@H](Sc1nc(=O)[nH]cc1C)C(=O)N[C@H](C)c1ccc2c(c1)CC(=O)N2 [Compound I-193]
1 to 25 µM | COc1ccc(C2(NC(=O)CSc3nc(=O)[nH]cc3C)CC2)cc1 [Compound I-197]
> 25 µM | COc1ccc2c(c1)CN(C(=O)CSc1nc(=O)[nH]cc1C)C2 [Compound I-205]
1 to 25 µM | CC[C@@H](NC(=O)CSc1nc(=O)[nH]cc1C)c1ccc(OC)cc1 [Compound I-217]
1 to 25 µM | COc1ccc([C@H](NC(=O)CSc2nc(=O)[nH]cc2C)C(C)C)cc1 [Compound I-218]
1 to 25 µM | Cc1c[nH]c(=O)nc1SCC(=O)N[C@@H](c1ccc(O)cc1)C1CC1 [Compound I-219]
1 to 25 µM | COc1ccc([C@H](NC(=O)CSc2nc(=O)[nH]cc2C)C(F)(F)F)cc1 [Compound I-221]
> 25 µM | COc1ccc(C(C)NC(=O)CSc2nc(=O)[nH]cc2C2CC2)cc1 (centres unmarked) [Compound I-225]
1 to 25 µM | CCc1c[nH]c(=O)nc1SCC(=O)N[C@H](C)c1ccc(OC)cc1 [Compound I-226]
1 to 25 µM | COc1ccc([C@@H](C)NC(=O)CSc2nc(=O)[nH]cc2F)cc1 [Compound I-228]
> 25 µM | COc1ccc(C(C)NC(=O)CSc2nc(=O)[nH]cc2OC)cc1 (centres unmarked) [Compound I-230]
> 25 µM | COc1ccc(C(C)NC(=O)C2CC2c2nc(=O)[nH]cc2C)cc1 (centres unmarked) [Compound I-238]
> 25 µM | COc1ccc([C@@H](C)NC(=O)CSc2[nH]c(=O)[nH]c(=O)c2C)cc1 [Compound I-242]
1 to 25 µM | COc1ccc([C@@H](C)NC(=O)CSc2nc(=O)[nH]cc2C)cc1 [Compound I-247]
1 to 25 µM | COc1ccc(C(C)(C)NC(=O)CSc2nc(=O)[nH]cc2C)cc1 [Compound I-249]
> 25 µM | COc1ccc(CN2CCC(Sc3nc(=O)[nH]cc3C)C2=O)cc1 (centres unmarked) [Compound I-252]
> 25 µM | COc1ccc(CN2CC[C@H](Sc3nc(=O)[nH]cc3C)C2=O)cc1 [Compound I-254]
1 to 25 µM | COCC(Sc1nc(=O)[nH]cc1C)C(=O)NC(C)c1ccc(OC)cc1 (centres unmarked) [Compound I-266]
1 to 25 µM | COCC(Sc1nc(=O)[nH]cc1C)C(=O)NC(C)c1ccc(OC)cc1 (centres unmarked) [Compound I-267]
1 to 25 µM | CCOc1ccc([C@@H](C)NC(=O)CSc2nc(=O)[nH]cc2C)cc1 [Compound I-277]
> 25 µM | COc1ccc(CN(CCO)C(=O)CSc2cc(=O)[nH]cc2C)cc1 [Compound I-287]
1 to 25 µM | Cc1c[nH]c(=O)nc1SCC(=O)NC(C)c1ccc(S(C)(=O)=O)cc1 (centres unmarked) [Compound I-294]
1 to 25 µM | COc1ccc([C@@H](C)NC(=O)CSc2nc(=O)[nH]cc2Cl)cc1F [Compound I-306]
0.1 to 1 µM | COc1ccc(C2(NC(=O)CSc3nc(=O)[nH]cc3Cl)CC2)cc1F [Compound I-307]
1 to 25 µM | C[C@@H](NC(=O)CSc1nc(=O)[nH]cc1Cl)c1ccc(Cl)c(F)c1 [Compound I-314]

Same assay, conditions: Table 6; dissociation constant for CNOT7 by SPR

Kd | Structure (SMILES)
1 to 25 µM | COc1cnc(CNC(=O)CSc2nc(=O)[nH]cc2C)cn1 [Compound I-45]
> 25 µM | Cc1c[nH]c(=O)nc1SCC(=O)NCc1ccc2c(c1)COC2 [Compound I-58]
1 to 25 µM | COCCOC[C@@H](Sc1nc(=O)[nH]cc1C)C(=O)N[C@H](C)c1ccc(OC)cc1 [Compound I-172]
1 to 25 µM | COCCOC[C@H](Sc1nc(=O)[nH]cc1C)C(=O)N[C@H](C)c1ccc(OC)cc1 [Compound I-173]
1 to 25 µM | Cc1c[nH]c(=O)nc1SCC(=O)N[C@H](C)c1ccc2c(c1)CC(=O)N2 [Compound I-190]
0.1 to 1 µM | COc1ccc2c(c1)CCN(C(=O)CSc1nc(=O)[nH]cc1C)[C@@H]2C [Compound I-199]
1 to 25 µM | C#CCOCCOCCOCCOC[C@@H]1Cc2cc(OC)ccc2CN1C(=O)CSc1nc(=O)[nH]cc1C [Compound I-203]
1 to 25 µM | COc1ccc([C@@H](C)NC(=O)CSc2nc(=O)[nH]cc2Cl)cc1 [Compound I-229]
1 to 25 µM | COc1ccc(C(C)NC(=O)CSc2nc(=O)[nH]cc2C)cc1F (centres unmarked) [Compound I-244]
0.1 to 1 µM | COc1ccc([C@@H](C)NC(=O)CSc2nc(=O)[nH]cc2C)c(C)c1 [Compound I-248]
1 to 25 µM | COc1ccc([C@](C)(CO)NC(=O)CSc2nc(=O)[nH]cc2C)cc1 [Compound I-250]
1 to 25 µM | COc1ccc([C@@H](C)NC(=O)[C@@H](CCOCCOCCOCCN=[N+]=[N-])Sc2cc[nH]c(=O)n2)cc1 [Compound I-261]
1 to 25 µM | COc1ccc([C@@H](C)NC(=O)CSc2cc(=O)[nH]cc2C)nc1 [Compound I-281]
1 to 25 µM | COc1cc(F)c([C@@H](C)NC(=O)CSc2nc(=O)[nH]cc2Cl)cc1F [Compound I-311]
1 to 25 µM | COc1cc(F)c([C@@H](C)NC(=O)CSc2nc(=O)[nH]cc2Cl)c(F)c1 [Compound I-312]
1 to 25 µM | COc1c(F)cc([C@@H](C)NC(=O)CSc2nc(=O)[nH]cc2Cl)cc1F [Compound I-313]
1 to 25 µM | Cc1c[nH]c(=O)nc1SCC(=O)NC(C)c1ccc2c(c1)CC(=O)N2 (centres unmarked) [Compound I-322]
1 to 25 µM | COCC(Sc1nc(=O)[nH]cc1Cl)C(=O)NC(C)c1ccc2c(c1)CC(=O)N2 (centres unmarked) [Compound I-323]
1 to 25 µM | COc1ccc([C@@H](C)NC(=O)C2(Sc3nc(=O)[nH]cc3C)CCC2)cc1 [Compound I-324]

Same assay, conditions: dissociation constant by SPR, Table 7

Kd | Structure (SMILES)
1 to 25 µM | COCC(Sc1nc(=O)[nH]cc1Cl)C(=O)NC(C)c1ccc2c(c1)CC(=O)N2 (centres unmarked) [Compound I-323]
0.1 to 1 µM | COc1ccc([C@@H](C)NC(=O)C2(Sc3nc(=O)[nH]cc3C)CCC2)cc1 [Compound I-324]
